# Legend:
# Format in all cases: in vivo, human
# [1] = test system: extensive-stage small cell lung cancer; assay: Clinical study of anlotinib in combination with etoposide in extensive-stage small cell lung cancer after second-line failure (Example 3); conditions: anlotinib hydrochloride capsules 12 mg qd d1-14 in combination with etoposide soft capsules 100 mg qd d1-10, 21-day cycle
# Procedure: Patients with extensive-stage small cell lung cancer after the pathological diagnosis of small cell lung cancer and failure with second-line chemotherapy (having received two previous chemotherapy regimens) were administered with anlotinib in combination with etoposide.
# The administration regimens are detailed below.
# Etoposide soft capsules: once daily, oral administration before breakfast, 100 mg (by weight of etoposide comprised therein) each time, administered at d1-10 of each 21-day dosing cycle.
# Anlotinib hydrochloride capsules: once daily, oral administration before breakfast, 12 mg each time, administered at d1-14 of each 21-day dosing cycle.
# The interval between the two drugs was more than half an hour. If there was a missed dose, the interval needed to be confirmed that it was not shorter than 12 hours before the next dose, otherwise no more doses would be taken. During the administration, dosage adjustments could be made according to the degree of drug-related toxicity and possible therapeutic benefit of the patient. The dose could be adjusted to the following 2 levels for anlotinib: 10 mg and 8 mg. If a reduction of more than 2 dose levels was required, the treatment was discontinued. The dose of etoposide could be reduced to 50 mg. […]
# [2] = test system: small cell lung cancer (including ED-SCLC and LD-SCLC); assay: Clinical trial of EP or EC regimen (etoposide+cisplatin/carboplatin)+anlotinib in small cell lung cancer patients (Example 1)
# From the text: Patients who were pathologically diagnosed with small cell lung cancer (including ED-SCLC and LD-SCLC) with measurable lesions were divided into the following groups: two combination administration groups adopting a combination of either EP or EC regimen (etoposide+cisplatin/carboplatin)+anlotinib, and a control group adopting either EP or EC alone (etoposide+cisplatin/carboplatin). The administration regimens are detailed below.
# In the combination administration group, patients received etoposide: 100 mg/m^2, i.v., for 120 min, administered at d1-3 of each 21-day dosing cycle; cisplatin: 75 mg/m^2, or carboplatin: AUC 5, i.v., for 120 min, administered at d1 of each 21-day dosing cycle; anlotinib, 12 mg/day, administered orally on an empty stomach in the morning at d1-14 of each 21-day dosing cycle. After 4-6 dosing cycles of combination treatment, anlotinib was used for maintenance treatment: 12 mg/day, administered orally on an empty stomach in the morning at d1-14 of each 21-day dosing cycle until progressive disease.
# In the control group, patients received etoposide: 100 mg/m^2, i.v., for 120 min, administered at d1-3 of each 21-day dosing cycle; cisplatin: 75 mg/m^2 or carboplatin: AUC 5, i.v., for 120 min, administered at d1 of each 21-day dosing cycle.
# The observation indexes are as follows: primary endpoint: progression-free survival (PFS); secondary endpoint: objective response rate (ORR), overall survival (OS), disease control rate (DCR), safety, and tolerability.
# The clinical trial was implemented, and 31 patients were enrolled between February 2018 and October 2019.
# [3] = test system: small cell lung cancer; assay: Clinical study of anlotinib in combination with irinotecan in relapsed small cell lung cancer (Example 2); conditions: anlotinib hydrochloride capsule 12 mg qd po d1-14 in combination with irinotecan 60-80 mg/m^2 i.v. d1 and d8, q3w
# From the text: Patients who have been histopathologically and cytologically diagnosed with small cell lung cancer, have previously received 1 systemic chemotherapy adopting platinum-based chemotherapy regimens, and relapsed or failed after treatment, excluding patients with non-small cell lung cancer (including small cell and non-small cell mixed types), were divided into a combination administration group and a single-drug chemotherapy control group. The administration regimens are detailed below.
# Combination administration group: anlotinib hydrochloride capsule 12 mg qd po d1-14 and irinotecan 60-80 mg/m^2 i.v. d1 and d8; q3w, no more than 6 chemotherapy dosing cycles.
# Single-drug chemotherapy control group: irinotecan 60-80 mg/m^2 i.v. d1 and d8; q3w, no more than 6 chemotherapy dosing cycles.
# Patients who achieved complete response (CR), partial response (PR), and stable disease (SD) continued to be administered until progressive disease (PD), intolerable toxicity, or patients who required withdrawal or achieved progressive disease (PD) were discontinued. The efficacy evaluation observation indexes include progression-free survival (PFS), overall survival (OS), objective response rate (ORR), disease control rate (DCR), duration of response (DOR), quality of life score and drug safety.
# [4] = test system: small cell lung cancer; assay: Clinical study of anlotinib in combination with sintilimab in relapsed small cell lung cancer (Example 5); conditions: anlotinib hydrochloride capsules 12 mg qd d1-14 in combination with sintilimab 200 mg i.v. d1, 21-day cycle
# Procedure: Patients who have been histologically or cytologically confirmed pathologically diagnosed with small cell lung cancer, have previously received at least one systemic chemotherapy regimen and have relapsed were administered with anlotinib in combination with sintilimab. The administration regimens are detailed below.
# Anlotinib hydrochloride capsules: once daily, oral administration before breakfast, 12 mg each time, administered at d1-14 of each 21-day dosing cycle, consecutive 2-week treatment and 1-week interruption.
# Sintilimab: 200 mg, i.v. infusion, administered d1 of each 21-day dosing cycle.
# All patients continued for a treatment period of up to 12 months, or until progressive disease, development of an intolerable toxic response, withdrawal of informed consent, death, or other event requiring discontinuation of treatment specified in the protocol, whichever occurred first.
# The efficacy evaluation observation indexes include progression-free survival (PFS), overall survival (OS), objective response rate (ORR=CR+PR), disease control rate (DCR=CR+PR+SD) and drug safety.
# [5] = anlotinib 12 mg/day in combination with EP or EC regimen, 31 patients
# [6] = anlotinib 12 mg/day in combination with EP or EC regimen, of 31 patients
# [7] = combination of anlotinib and EP or EC regimen
compound,measurement,setting,value
"COc1cc2c(Oc3ccc4[nH]c(C)cc4c3F)ccnc2cc1OCC1(N)CC1 [anlotinib, 1-[[[4-(4-fluoro-2-methyl-1H-indol-5-yl)oxy-6-methoxyquinolin-7-yl]oxy]methyl]cyclopropylamine]",clinical benefits,[1],had clinical benefits
same,disease control rate (DCR),[2]; [5],100%
same,objective response rate (ORR),[2]; [5],74.2%
same,patients with complete response (CR),[2]; [6],3 patients
same,patients with partial response (PR),[2]; [6],20 patients
same,patients with progressive disease (PD),[2]; [6],0 patients
same,median PFS (progression-free survival),"[2]; anlotinib 12 mg/day po d1-14 q21d in combination with EP or EC regimen (etoposide + cisplatin/carboplatin), then anlotinib maintenance, 31 patients",8.9 months
same,clinical efficacy,[2]; [7],good
same,safety,[2]; [7],good
same,clinical benefits,[3],had clinical benefits
same,clinical benefits,[4],had clinical benefits
same,progression-free survival to date,[4],up to 6 months

# Source: patent US20220193066A1, “QUINOLINE DERIVATIVE USED FOR COMBINATION TREATMENT OF SMALL CELL LUNG CANCER” (CHIA TAI TIANQING PHARMACEUTICAL GROUP CO., LTD., priority 2019, published 2022)
